Assay results: patent US12616193B2, “5-(1H-indol-3-yl)-oxazole, -oxadiazole and -furan derivatives as enhancers of sperm motility” (SPERMATECH AS, priority 2020, dated 2026)
Like-named read-outs stand apart in the source and are kept apart here.

Tests used:
Human T-cells = experiment: Genotoxicity, comet assay (Example 4); assay type: cell-based
Method: Human T-cells (four concentrations of Compound No. 1 including 0 μM; two exposure times) were embedded in 1% agarose, lysed in cold 2.5 M NaCl, 0.1 M EDTA, 10 mM Tris buffer, and 1% Triton X-100, pH 10. Incubation with dithiothreitol and lithium diiodosalicylate was followed by incubation in cold 0.3M NaOH, and 1 mM EDTA for 20 min and then electrophoresis at 0.8 V/cm for 20 min in a cold room. After neutralization with PBS, and staining with SYBRGold (Invitrogen), slides were scored using the Comet Assay IV image analysis programme (Perceptive Instruments).

sows [1] = experiment: Field trial pilot study, artificial insemination of sows (Example 5); assay type: in vivo, pig
Method: A pilot field study included 27 sows of which 13 received untreated control sperm and 14 received sperm treated with Compound No. 1 (“activator”). Insemination doses were collected from the same animals during the course of the experiment and contained pooled semen from three individual boars. 45 μl 100 mM activator solution in DMSO was added to 89 ml boar sperm (final concentration of 50 μM) directly before insemination which was carried out within 15 to 45 min. The sperm was transferred to an insemination bottle and then the activator was added. After placing the insemination catheter into the cervix of the sow, the bottle was connected, and the sperm sample was released into the sow. The sows received insemination doses on two subsequent days. After 30 to 35 days the animals were sacrificed, the uteri were removed and embryos were counted for all […]. Organ material from 5 activator-receiving sows and 5 sows from the control group were optically inspected and samples from the uterus, cervix and vagina were formalin-fixated for histology examination. […] The formalin preparations were cut and stained with hematoxylin eosin for histological examination. The histopathological assessment included a thorough evaluation of the epithelium of the mucosa and the underlying lamina propria. In both the epithelium and lamina propria, particular emphasis was placed on acute changes. In the epithelium, the acute changes included single cell necrosis/apoptosis and infiltration of polymorphonuclear leukocytes. In the lamina propria, infiltration of polymorphonuclear leukocytes was considered as the most important acute change. […] Infiltration of lymphocytes in the epithelium and lamina propria was considered to be within the normal range of all individuals. Flattening and possibly loss of surface epithelium were partly difficult to assess. Edema and bleeding in the lamina propria were detected in several individuals. Heat and age are the denominators of leukocyte infiltration in sows and are considered normal. The average number of embryos was determined for the sows of the control group (n=11, 11 sows were in pig after insemination) and the activator-receiving group (n=13, 13 sows in pig after insemination).

sows [2] = experiment: Field trial study, 441 sows (Example 6); assay type: in vivo, pig
Description: Following the success of the pilot study reported in Example 5, a larger field trial study was conducting which included 441 sows. 224 sows received untreated control sperm and 217 received sperm treated with Compound No. 1 (“activator”).

boar sperm [3] = experiment: Effect of long-term storage at 18° C. on boar sperm, activator freshly added (Example 2); assay type: cell-based
Method: The effect of Compound No. 1 (“activator”) on the shelf-life of boar sperm was evaluated. Compound No. 1 was freshly added to stored boar sperm aliquots. The sperm samples were stored as aliquots in Eppendorf tubes (995 μl) at 18° C. During the course of one week 5 μl 10 mM activator solution in DMSO (50 μM final concentration) was added to one aliquot and the resulting solution was incubated in a water bath at for 12 min at 37° C. Subsequently, 10 μl semen samples were taken out and added to a counting chamber slide, incubated for 2 min at 37° C. and analysed as described in Example 1.

[4] = test system: mice oocytes contacted with mice sperm cells; experiment: In vitro fertilization, mouse (Example 3); assay type: cell-based
Method: In vitro fertilization (IVF) studies were conducted to determine whether the activator compound No. 1 has any adverse effects on the fertilization process. Male mice were sacrificed, and the epididymis was opened to release the sperm into the appropriate buffer in a petri dish. The sperm cells were incubated with 50 μM of the activator compound for one hour before an aliquot was transferred to a petri dish containing oocytes. The cells were further incubated at 37° C. and 1-cell/2-cell eggs were counted after 24 hours. The experiment was performed in duplicates using sperm from the same epididymis and oocytes from two different mice.

boar sperm [5] = experiment: Determination of boar sperm motility and progressive motility by CASA (Example 1); assay type: cell-based, Duroc boar; settings: for EC50: 0.2 h, 12 min at 37° C., activation-% relative to DMSO-only control
Method: Duroc boar sperm samples were received from Norsvin AS and contained pooled semen from three individual boars. Semen samples were stored in Androstar® extender (mini-tube) at 18° C. prior to use. Compound No. 1 was tested in duplicates, using 2-fold serial dilutions including 10 individual concentrations starting from 100 μM. 995 μL semen were aliquoted in Eppendorf tubes and 5 μL of Compound No. 1 diluted in DMSO were added leading to the described final concentrations. The resulting semen samples were mixed gently and incubated for 12 min at 37° C. in a water bath. Subsequently, 10 μL of each semen sample was added to a counting chamber slide (Leja) and incubated on a plate incubator at 37° C. Sperm motility, progressive motility and curvilinear velocity were determined using a CASA (Hamilton Thorne), starting from 14 min. For each chamber A and B 15 individual frames were analysed and motility as well as progressive motility data was read out. The data were converted into activation-% using DMSO-only controls (set to 100% activity) by determining the percental increase of either motility or progressive motility relative to the control sample without added Compound No. 1. For the determination of EC50 values, data were fitted using Prism8 (non-linear fit, absolute IC50, x is concentration, graphpad.com).

[6] = 217 sows with treated sperm vs 224 sows with untreated control sperm
[7] = 50 μM added to boar sperm stored at 18° C. for 1 to 8 days, FIG. 2

OO [H2O2, reference compound]
% Tail DNA (Human T-cells; Control+ treatment): 75.4%

O=C(CSc1nnc(-c2c[nH]c3ccccc23)o1)Nc1ccc2c(c1)OCO2 [Compound No. 1]
optical inspection of organ material (cervix, uteri, vaginae) (sows [1]; 5 activator-receiving sows, 30 to 35 days after insemination with sperm treated at 50 μM): mostly normal mucosa and no signs of lesions
sows in pig after insemination (sows [1]; of 14 sows receiving sperm treated at 50 μM (control 11 of 13)): 13
sows with abundant infiltration of polymorphonuclear leukocytes mostly in the cervix and uterus (sows [1]; of five sows in the activator group (control: one sow), histology): Three of the five sows
sows with necrosis/apoptosis detected (sows [1]; of five sows in the activator-receiving group (control: one), histology): one of the sows
pregnancy rates in the sows (sows [1]; sperm treated at 50 μM vs untreated control sperm): increase pregnancy rates
average increase of embryos per sow (sows [1]; vs control group, embryos counted after 30 to 35 days, FIG. 5): 2 embryos per sows
average increase in live piglets born per sow (sows [2]; [6]): ~1 live piglet born per sow
increase in pregnancy rate (sows [2]; [6]): 5%
weaning to service interval (WSI) (sows [2]; treated vs untreated control sperm): improved the weaning to service interval
motility of stored sperm samples (boar sperm [3]; [7]): increases motility and progressive motility, even after 7 days of storage
progressive motility of stored sperm samples (boar sperm [3]; [7]): increases motility and progressive motility, even after 7 days of storage
boar sperm shelf life (boar sperm [3]; 50 μM, storage at 18° C.): has a positive impact on boar sperm shelf life
interference with the fertilization process ([4]; 50 μM, mouse IVF): does not interfere with the fertilization process
fertility rates vs control ([4]; mouse sperm incubated with 50 μM for one hour, eggs counted after 24 hours): comparable to the control samples
% Tail DNA (Human T-cells; 0.5 hr exposure, 5 μM): 0.2%
% Tail DNA (Human T-cells; 0.5 hr exposure, 50 μM): 0.6%
% Tail DNA (Human T-cells; 0.5 hr exposure, 500 μM): 0.4%
% Tail DNA (Human T-cells; 3 hr exposure, 5 μM): 0.5%
% Tail DNA (Human T-cells; 3 hr exposure, 50 μM): 0.1%
% Tail DNA (Human T-cells; 3 hr exposure, 500 μM): 0.2%
genotoxic effects (Human T-cells; up to 500 μM, 0.5 and 3 hr exposure): No genotoxic effects
EC50 (boar sperm [5]; n=6, read-out: Absolute EC50 motility): 3.31 µM
EC50 (boar sperm [5]; n=6, read-out: absolute EC50 progressive motility): 11.2 µM
motility (boar sperm [5]; FIG. 1B, n=4, up to 100 μM): increases both motility and progressive motility in a dose-dependent manner
progressive motility (boar sperm [5]; FIG. 1B, n=4, up to 100 μM): increases both motility and progressive motility in a dose-dependent manner
